Columns and labels:
Assay type in all cases: in vivo
[1] = system: redroot pigweed (Amaranthus retroflexus, AMARE); test: Test A pre-emergence, redroot pigweed; settings: after 13 d
Summary of the method: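 Pots of soil sown, sprayed at day 1 post-sowing: test compound at 15.625/62.5/250 g/ha in acetone:water 1:1 + 0.5% Tween 20. Glasshouse 24/16° C., 14 h light, 65% RH, watering twice daily. Readout: % damage after 13 d.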

wheat = test: Test D pre-emergence, wheat seed treated with a herbicide safener; settings: 100=total damage, 0=no damage
Summary of the method: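 Safener-seed-treated maize and wheat were sprayed with an emulsifiable formulation diluted in 0.2% v/v adjuvant solution, one day after sowing (pre-emergence) or after about 12 days (post-emergence). Plants were grown in a glasshouse at 24/18 or 20/16 °C with 16 h light; damage was scored 0–100 at 20 DAA (pre) or 15 d (post).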

plants = test: Test D post-emergence, other plants of Tables D2 and D4; settings: "Cereals" Postemergent, evaluated after 15 d
Protocol: A formulation containing 50 g/L of the test chemical was prepared by dissolving the active ingredient in a mixture of organic solvents and emulsifier, details of which are provided in the table. This formulation was then mixed with a small, variable amount of acetone to aid dissolution, before addition of a 0.2% v/v aqueous solution of an adjuvant, as the aqueous diluent, to form an aqueous spray solution which contains a predetermined concentration of the active ingredient.
This aqueous spray solution was then sprayed onto plants including maize and wheat that had been seed treated with a herbicide safener, after one day's cultivation (for pre-emergence) or after about 12 days' cultivation (for post-emergence). The plants were grown from seeds sown in standard soil, placed in a glasshouse under controlled conditions (at 24/18° C. or 20/16° C., day/night; 16 h light; 65% humidity). After spray application the plants were then grown in a glasshouse under the same conditions and watered twice daily. After 15 d for post-emergence and 20 DAA for pre-emergence the test was evaluated (100=total damage to plant; 0=no damage to plant).

CN1CC(c2cc(C(F)(F)F)n(C)n2)C(C(=O)Nc2ccc(F)cc2F)C1=O (racemic) [Compound 6]
damage to plant (100=total damage; 0=no damage) AMARE ([1]; Pre-Emergence at 15.625 g/ha): 20
damage to plant (100=total damage; 0=no damage) AMARE ([1]; Pre-Emergence at 62.5 g/ha): 20
damage to plant (100=total damage; 0=no damage) AMARE ([1]; Pre-Emergence at 250 g/ha): 50
damage to plant, TRZAW (wheat; rate 15, 20 DAA): 0
damage to plant, TRZAW (wheat; rate 30, 20 DAA): 0
damage to plant, TRZAW (wheat; rate 60, 20 DAA): 0
damage to plant, TRZAW (wheat; rate 130, 20 DAA): 0
damage to plant, TRZAW (wheat; rate 250, 20 DAA): 0
damage to plant, TRZAW (wheat; rate 500, 20 DAA): 10
ALOMY damage rating (100=total damage to plant; 0=no damage to plant) (plants; Rates 130): 0
ALOMY damage rating (100=total damage to plant; 0=no damage to plant) (plants; Rates 250): 0
ALOMY damage rating (100=total damage to plant; 0=no damage to plant) (plants; Rates 500): 0
AVEFA damage rating (100=total damage to plant; 0=no damage to plant) (plants; Rates 130): 0
AVEFA damage rating (100=total damage to plant; 0=no damage to plant) (plants; Rates 250): 0
AVEFA damage rating (100=total damage to plant; 0=no damage to plant) (plants; Rates 500): 10
BEAVA damage rating (100=total damage to plant; 0=no damage to plant) (plants; Rates 130): 0
BEAVA damage rating (100=total damage to plant; 0=no damage to plant) (plants; Rates 250): 0
BEAVA damage rating (100=total damage to plant; 0=no damage to plant) (plants; Rates 500): 0
BROTE damage rating (100=total damage to plant; 0=no damage to plant) (plants; Rates 130): 0
BROTE damage rating (100=total damage to plant; 0=no damage to plant) (plants; Rates 250): 0
BROTE damage rating (100=total damage to plant; 0=no damage to plant) (plants; Rates 500): 10
BRSNN damage rating (100=total damage to plant; 0=no damage to plant) (plants; Rates 130): 0
BRSNN damage rating (100=total damage to plant; 0=no damage to plant) (plants; Rates 250): 0
BRSNN damage rating (100=total damage to plant; 0=no damage to plant) (plants; Rates 500): 10
CHEAL damage rating (100=total damage to plant; 0=no damage to plant) (plants; Rates 130): 0
CHEAL damage rating (100=total damage to plant; 0=no damage to plant) (plants; Rates 250): 0
CHEAL damage rating (100=total damage to plant; 0=no damage to plant) (plants; Rates 500): 0
GALAP damage rating (100=total damage to plant; 0=no damage to plant) (plants; Rates 130): 0
GALAP damage rating (100=total damage to plant; 0=no damage to plant) (plants; Rates 250): 10
GALAP damage rating (100=total damage to plant; 0=no damage to plant) (plants; Rates 500): 20
HORVW damage rating (100=total damage to plant; 0=no damage to plant) (plants; Rates 130): 0
HORVW damage rating (100=total damage to plant; 0=no damage to plant) (plants; Rates 250): 10
HORVW damage rating (100=total damage to plant; 0=no damage to plant) (plants; Rates 500): 30
KCHSC damage rating (100=total damage to plant; 0=no damage to plant) (plants; Rates 130): 0
KCHSC damage rating (100=total damage to plant; 0=no damage to plant) (plants; Rates 250): 0
KCHSC damage rating (100=total damage to plant; 0=no damage to plant) (plants; Rates 500): 10
LOLPE damage rating (100=total damage to plant; 0=no damage to plant) (plants; Rates 130): 0
LOLPE damage rating (100=total damage to plant; 0=no damage to plant) (plants; Rates 250): 0
LOLPE damage rating (100=total damage to plant; 0=no damage to plant) (plants; Rates 500): 0
POAAN damage rating (100=total damage to plant; 0=no damage to plant) (plants; Rates 130): 0
POAAN damage rating (100=total damage to plant; 0=no damage to plant) (plants; Rates 250): 0
POAAN damage rating (100=total damage to plant; 0=no damage to plant) (plants; Rates 500): 10
POLCO damage rating (100=total damage to plant; 0=no damage to plant) (plants; Rates 130): 0
POLCO damage rating (100=total damage to plant; 0=no damage to plant) (plants; Rates 250): 0
POLCO damage rating (100=total damage to plant; 0=no damage to plant) (plants; Rates 500): 0
SINAR damage rating (100=total damage to plant; 0=no damage to plant) (plants; SINAR, Rates 500): 40
STEME damage rating (100=total damage to plant; 0=no damage to plant) (plants; Rates 130): 0
STEME damage rating (100=total damage to plant; 0=no damage to plant) (plants; Rates 250): 0
STEME damage rating (100=total damage to plant; 0=no damage to plant) (plants; Rates 500): 10

— US20220281848A1, “PYRAZOLE-SUBSTITUTED PYRROLIDINONES AS HERBICIDES” (FMC Corporation, priority 2019, published 2022)
